One block for each molecule: values may come before it.
Experiments:
rTRPV2 = molecular target: T1, rTRPV2 (Rattus norvegicus, UniProt Q9WUD2, A713V/L151P/T158I); assay: Whole-cell voltage-clamp recording in TRPV2 transfected HEK293T cell line; assay type: cell-based
T1 construct: expressed in transfected cells; host or cells: HEK293T (ATCC CRL-11268)
T1 sequence (Q9WUD2 1-761 L151P/T158I/A713V): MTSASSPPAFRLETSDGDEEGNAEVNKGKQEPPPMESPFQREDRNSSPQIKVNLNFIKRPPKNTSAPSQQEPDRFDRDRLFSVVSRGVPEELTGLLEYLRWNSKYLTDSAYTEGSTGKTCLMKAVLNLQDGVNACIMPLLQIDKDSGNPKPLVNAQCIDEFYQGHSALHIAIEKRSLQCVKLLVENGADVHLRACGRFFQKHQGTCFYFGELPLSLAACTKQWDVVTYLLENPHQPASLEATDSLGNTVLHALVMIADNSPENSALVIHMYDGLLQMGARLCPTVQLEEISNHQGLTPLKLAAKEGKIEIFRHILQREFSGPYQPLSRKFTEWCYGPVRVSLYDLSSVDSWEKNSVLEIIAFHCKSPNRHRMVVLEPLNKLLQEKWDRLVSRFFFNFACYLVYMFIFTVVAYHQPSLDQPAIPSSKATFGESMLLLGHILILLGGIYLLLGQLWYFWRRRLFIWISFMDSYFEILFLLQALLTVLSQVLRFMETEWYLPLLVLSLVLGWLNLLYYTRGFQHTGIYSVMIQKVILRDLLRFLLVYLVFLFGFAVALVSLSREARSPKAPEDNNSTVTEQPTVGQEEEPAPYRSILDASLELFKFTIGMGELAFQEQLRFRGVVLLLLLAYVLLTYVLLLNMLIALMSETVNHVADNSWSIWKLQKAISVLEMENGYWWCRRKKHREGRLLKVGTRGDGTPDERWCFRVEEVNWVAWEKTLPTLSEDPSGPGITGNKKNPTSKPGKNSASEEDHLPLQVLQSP
Experimental: HEK293T cell line (ATCC CRL-1 1268) was transiently transfected with plasmid DNA containing polynucleotide encoding […] (SEQ. ID. NO: 1), rTRPV2 (SEQ. ID. NO: 2), mTRPV3 (SEQ. ID. NO: 3), rTRPV4 (SEQ. ID. NO: 4), mTRPM8 (SEQ. ID. NO: 5) or mTRPA1 (SEQ. ID. NO: 6).
Particularly, the HEK293T cell line was transiently transfected with individual TRP channel plasmid (pcDNA3.1 containing polynucleotide encoding rTRPV1, rTRPV2, mTRPV3, rTRPV4, mTRPM8 or mTRPA1), and 600 ng/well of pCDNA3 (Invitrogen Corp., USA; containing green fluorescent protein (GFP) cDNA) using Fugene6 (Roche Diagnostics, USA) according to manufacturer's instruction. The transformed cells were cultured in DMEM/F12 containing 10% FBS and 1% penicillin/streptomycin in a CO2 incubator for 24 hours. The cells were replated onto poly-L-lysine-coated glass coverslips, followed by further culture for 10-24 hours.
The TRPV2 transfected cell line prepared in Example 1 was treated with 100 μM probenecid (Sigma-Aldrich, USA) and 300 μM 2-APB (2-aminoethoxydiphenyl borate; Cayman Chemical, USA), respectively. Stock solutions were made using water, DMSO or ethanol, and were diluted with test solutions before use.
Whole-cell voltage-clamp recording, one of the patch-clamp techniques, was performed with the transfected cell line of Example <1-1> according to the method of Bandel M, et al. (Neuron 41:849-857, 2004).
Particularly, the extracellular solution (140 mM NaCl, 5 mM KCl, 2 mM CaCl2, 1 mM MgCl2, 10 mM HEPES; titrated to pH 7.4 with NaOH) and the pipette solution (140 mM CsCl, 5 mM EGTA, 10 mM HEPES, 2.0 mM MgATP, 0.2 mM NaGTP; titrated to pH 7.2 with CsOH) were used. The potential was held at −60 mV for 250 ms, voltage-ramp pulsed from −80 mV to +80 mV for […] and returned to −60 mV for 250 ms, which was repeated without intersweep. This experiment was repeated 5 times.
The TRPV2 transfected cell line prepared by the method of Example 1 was treated with 100 μM probenecid, 100 μM probenecid+20 μM ruthenium red (Sigma-Aldrich, USA) and 300 μM 2-APB, respectively. […]

trigeminal neurons [1] = assay: Calcium imaging of cultured trigeminal neurons; assay type: cell-based, ICR mice
Experimental: Trigeminal ganglia were dissected out of decapitated adult ICR mice in cold PBS and treated with 1.5 mg/ml of collagenase/dispase (Roche Diagnostics, USA) at 37° for 45 min, and then treated with 0.25% trypsin (Invitrogen, USA) for 15 min. The trigeminal neurons prepared thereby were then plated onto poly-L-lysinecoated coverslips in DMEM/F12 containing 10% FBS, 1% penicillin/streptomycin and 5 ng/ml of 2.5S NGF (Invitrogen, USA), followed by culture in a CO2 incubator for 48-72 hours.
Calcium imaging was performed with a confocal microscope (LSM5 Pascal, Carl Zeiss, Germany), and time-lapse images (excitation 488 nm/emission 514 nm) were collected every 3 seconds using Carl Zeiss ratio tool software (Carl Zeiss, Germany).
The trigeminal neurons prepared by the same manner as described in Example 2 were delayed-treated with 100 μM probenecid or 4 kinds of TRP activators: TRPM8 activator menthol 400 μM, TRPA1 activator cinnamaldehyde (MP Biomedicals, USA) 300 μM, TRPV1 activator capsaicin (Sigma-Aldrich, USA) 2 μM and TRPV1-3 activator 2-APB 300 μM.
The trigeminal neurons prepared by the same manner as described in Example 2 were treated with 300 μM 2-APB+100 μM probenecid, 300 μM 2-APB+2 μM capsaicin, 300 μM 2-APB+300 μM cinnamaldehyde+2 μM capsaicin, 300 μM 2-APB +2 μM capsaicin +100 μM probenecid, 300 μM 2-APB +400 μM menthol and 300 μM 2-APB, respectively.

trigeminal neurons [2] = assay: Whole-cell voltage-clamp recording in trigeminal neurons; assay type: cell-based, ICR mice; conditions: 20 μM ruthenium red + 100 μM probenecid

Compound: NCCOB(c1ccccc1)c1ccccc1 [2-APB, 2-aminoethoxydiphenyl borate]
whole cell current (TRPV2 activation) (rTRPV2; 300 μM 2-APB): equal response
neurons sensitive to 2-APB, share of the total neurons (trigeminal neurons [1]; 300 μM 2-APB): 46.8%
neurons with probenecid-induced calcium influx that responded to 2-APB (trigeminal neurons [1]; 300 μM 2-APB, 100 μM probenecid): 59 out of 60

Compound: COc1cc(CNC(=O)CCCC/C=C/C(C)C)ccc1O [capsaicin]
share of probenecid-sensitive neurons that responded to capsaicin (trigeminal neurons [1]; 2 μM capsaicin, 100 μM probenecid): 7.7%
share of the 2-APB-sensitive group that responded to capsaicin (trigeminal neurons [1]; 2 μM capsaicin, 300 μM 2-APB): 40.2%

inhibition of probenecid induced current response (rTRPV2; 20 μM ruthenium red + 100 μM probenecid): inhibited
Compound: N.N.N.N.N.N.N.N.N.N.N.N.N.N.[Cl-].[Cl-].[Cl-].[Cl-].[Cl-].[Cl-].[O-2].[O-2].[Ru+3].[Ru+3].[Ru+4] [ruthenium red]
inhibition of probenecid induced currents in trigeminal neurons (trigeminal neurons [2]): inhibited
